Source: patent US6960559B1, “Neurite growth regulatory factors” (University of Zurich, priority 1988, dated 2005)
pIC50: −log10 of the molar value. “And” between values parts separate entries of the source, which are not always exact repeats. Identical values can stand only once. Like-named read-outs stand apart in the source and are kept apart here. Values belong to the molecule of their own block, whether it stands above or below them. Where a SMILES comes first, the peptide text is derived from it. The star is where a group is joined. Cbz = O=C(OCc1ccccc1)*

Legend:
[1] = system: C6 plasma membrane associated metalloendoprotease; test: Enzyme assay: cbz-FAF[125I]Y-NH2 degradation by C6 plasma membranes with protease blockers; assay type: biochemical, rat
Procedure: For most experiments, 70-80% confluent cell layers (1 cm^2 wells, 100 μl MEMα) or 2-5 μg C6 plasma membrane (100 μl MEMα) were used. […] If indicated, cell layers or plasma membrane suspensions were preincubated for 30 min with protease blockers or peptides. NEM or iodacetamide incubations of plasma membranes were performed at pH 8.5. The incubation was stopped by loading a 10 μl aliquot of the incubation medium on a thin layer chromatography plate (10 cm height, Kieselgel 60 F254, MERCK, Germany) and air dried. […] Plates were then air dried and exposed on Kodak X-OMAT films (NY, USA) with an intensifying screen. To identify the degradation products on thin-layer chromatography, we run reference peptides under the same conditions.
For the quantification of the activity, the reaction was stopped by addition of an equal volume of chloroform. […] Activity is expressed as % radioactivity contained in the aqueous phase. 100% is the sum of the radioactivity of both phases.

[2] = system: C6 glioblastoma cells; test: cells; assay type: cell-based, rat; settings: for pIC50: 2 h
Procedure: Rat C6 glioblastoma cells (Benda et al., 1968, Science 161:370-371) were cultured in Dulbecco's modified Eagle's medium (DMEM) supplemented with 10% fetal calf serum (FCS), usually to maximally 70-80% confluency (Paganetti et al., 1988, J. Cell Biol. 107:2281-2291). All cell culture media were routinely supplemented with penicillin and streptomycin. Cells were harvested by a short trypsin treatment (0.1% in Ca^2+/Mg^2+-free [CMF] PBS/EDTA solution for 90 seconds) followed by addition of DMEM/10% FCS and centrifugation (600×g, 6 min). The cell pellet was rinsed with 5 ml DMEM/10% FCS and centrifuged. For cell spreading assays, cells were resuspended at 10^6/ml in defined serum-free medium (MEMα) supplemented with 0.2 μg/ml insulin, 0.5 μg/ml transferrin and 0.12 μg/ml bovine serum albumin (BSA). Protease blockers or peptides were added directly to the cell suspension from 10×solutions 10 min before plating.
Spinal cord myelin from young adult Lewis rats was purified on a discontinuous sucrose gradient (Colman et al., 1982, J. Cell Biol. 95:598-608; Schwab and Caroni, 1988, J. Neurosci. 8:2381-2393) and stored in 100 mM sucrose, 25 mM TRIS/HCl pH 7.4 at −80° C. up to 6 months. The myelin suspension ([…]) was incubated for 30 min on poly-D-lysine-coated wells (PLYS-wells). Unbound myelin membranes were removed by rinsing twice with CMF-Hank's and once with MEMα. Myelin-coated wells were used immediately for the spreading assay by adding 9'000 C6 cells per cm^2. Experiments were scored as described (Paganetti et al., 1988, J. Cell Biol. 107:2281-2291).

[3] = system: C6 cells; test: C6 cell spreading on CNS myelin or PLYS with protease inhibitors; assay type: cell-based, rat; settings: for Inhibition on CNS (%): C6 cells, spreading on PLYS minus spreading on CNS myelin; for Effect on C6 cell spreading on CNS myelin, in words: Section 9
Procedure: Rat C6, mouse NIH 3T3 and B16 cells were cultured in Dulbecco's modified Eagle's medium (DMEM) supplemented with 10% fetal calf serum (FCS), usually to maximally 70-80% confluency. Cells were harvested with a short trypsin treatment (0.1% in Ca^2+/Mg^2+-free Hank's medium for 90 seconds) stopped by addition of FCS in excess, collected by centrifugation. Cells were resuspended in either DMEM/FCS or defined serum-free medium (MEM) and used for experiments. Dissociated rat CNS glial cells were prepared starting from optic nerves of 6-7 days old Lewis rats as described in Section 6.1.1, supra and plated into poly-D-lysine (PLYS) coated wells (100 mm^2, 100 μl medium) at a density of 20,000 cells per well. The culture medium was an enriched L15 medium with 5% rat serum, penicillin and streptomycin. C6, 3T3 and B16 cells were added to 2 day old cultures at a concentration of 30,000 cells per well, incubated for two hours and fixed with warm 4% formalin in phosphate buffer. Inhibitory oligodendrocytes were identified by double labelling using the specific antibodies O1 and O4 (see Section 6.1.3, supra).
Myelin from rat spinal cord (CNS) or sciatic nerve (PNS) purified on a discontinuous sucrose gradient as described in Section 6.1.5., was dried overnight onto PLYS coated wells (20 μg protein/well of 100 mm^2 surface). Unbound membranes were removed by three washes with Ca^2+/Mg^2+-free Hank's solution. Myelin coated wells were immediately used in substrate testing assays by the addition of 9,000 cells (C6, 3T3, or B16) per cm^2. Alternatively, we used extracted CNS myelin protein, or SDS-PAGE purified 35 and 250 kD inhibitory proteins reconstituted in liposomes (see Section 7.1.5, supra). Experiments were scored at different time points using a phase contrast microscope equipped with a photocamera. Quantifications were done using a surface integration program; three arbitrary fields were photographed for each well at a magnitude of 80×, at least 25 cells per picture were measured. Each point represents the mean of at least 3 wells±SEM. Results are expressed as μ^2 of projected cell surface, or as degree, which was calculated by subtracting from the projected surface value of a spreading cell, the surface value of a completely spheric cell.

[4] = system: cbz-FAF[^125I]Y-NH2; test: Degradation of cbz-FAF[125I]Y-NH2 by defined proteases and C6 cell fractions; assay type: biochemical
Procedure: Preparation of plasma membrane from C6 cells was performed according to (Raper and Kapfhammer, 1990, Neuron 2:21-29) with some modifications. Briefly, C6 cells were cultured in 30 culture dishes (13.5 cm diameter). At confluency, the culture medium was removed and the cell layers were frozen to −20° C. All subsequent manipulations were performed at 4° C.: cell debris were collected using a rubber policeman in 100 ml CMF-Hank's and further homogenized by 10 strokes in a Dounce homogenizer with teflon plunger. A small aliquot of this suspension was stored at −20° C. and used later (homogenate-fraction). The nuclear pellet was obtained by low speed centrifugation (10 min, 1000×g) in a Sorvall S22 rotor and stored at […] A crude vesicular fraction was obtained by centrifugating the nuclear supernatant in a Sorvall S22 rotor (20,000×g, 30 min), and was resuspended in 10 ml CMF-Hank's. After adding 20 ml 2.25 M sucrose in CMF-Hank's, this suspension was loaded on 4×8 ml 2.25 M sucrose in CMF-Hank's and centrifuged at 80,000×g for 1 h in a Beckman SW28 motor. Plasma membranes were harvested at the top and the mitochondrial fraction at the interphase of this 2 step gradient. Both fractions were diluted 10× with CMF-Hank's and pelleted (Beckman TI80, 22,000×g, 30 min). The two pellets were resuspended in 2 ml MEMα (1.3 mg protein/ml) supplemented with 0.5 mM DTT and stored at −20° C.
For most experiments, 70-80% confluent cell layers (1 cm^2 wells, 100 μl MEMα) or 2-5 μg C6 plasma membrane (100 μl MEMα) were used. Reactions were started by the addition of 10 μl cbz-FAF[^125I]Y-NH2 (SEQ ID NO:2) (2 μM in MEMα, 10,000-30,000 cpm). If indicated, cell layers or plasma membrane suspensions were preincubated for 30 min with protease blockers or peptides. NEM or iodacetamide incubations of plasma membranes were performed at pH 8.5. The incubation was stopped by loading a 10 μl aliquot of the incubation medium on a thin layer chromatography plate (10 cm height, Kieselgel 60 F254, MERCK, Germany) and air dried. Thin layer chromatography was routinely run with CHCl3:CH3OH:CH3COOH 32% (5:3:1). Plates were then air dried and exposed on Kodak X-OMAT films (NY, USA) with an intensifying screen. To identify the degradation products on thin-layer chromatography, we run reference peptides under the same conditions.
For the quantification of the activity, the reaction was stopped by addition of an equal volume of chloroform. This simple procedure allowed us to separate an organic phase containing the unreacted substrate cbz-FAF[^125I]Y-NH2 and an aqueous phase containing the charged degradation products (see also FIG. 30). Activity is expressed as % radioactivity contained in the aqueous phase. 100% is the sum of the radioactivity of both phases.

[5] = C6 cell spreading on CNS myelin, read-out: IC50 on CNS myelin

Effect on cbz-FAF[^125I]Y-NH2 degradation by C6 plasma membranes, in words [1]: had no effect
Molecule: C[C@H](CS)C(=O)N1CCC[C@H]1C(=O)O [Captopril]

Molecule: C[C@H](NC(=O)[C@@H](N)Cc1ccccc1)C(=O)N[C@@H](Cc1ccccc1)C(=O)N[C@@H](Cc1ccc(O)cc1)C(N)=O [FAFY-NH2] (H-FAFY-NH2; N-terminus assumed)
pIC50 [2, 5]: 3.52

Effect on cbz-FAF[^125I]Y-NH2 degradation by C6 plasma membranes, in words [1]: had no effect
Molecule: CCN1C(=O)C=CC1=O [N-ethylmaleimide]

Molecule: O=S(=O)(F)Cc1ccccc1 [PMSF, Phenyl methyl sulfonyl fluoride]
Inhibition on CNS (%) [3]: 6%
Effect on cbz-FAF[^125I]Y-NH2 degradation by C6 plasma membranes, in words [1]: had no effect

Effect on cbz-FAF[^125I]Y-NH2 degradation by C6 plasma membranes, in words [1]: did not affect overall activity
Molecule: CC(C)C[C@H](NC(=O)[C@@H](O)[C@H](N)Cc1ccccc1)C(=O)O [bestatine]
Inhibition on CNS (%) [3]: 0%
Effect on C6 cell spreading on CNS myelin, in words [3]: did not impair C6 cell spreading
Effect on formation of Y-NH2 from cbz-FAF[^125I]Y-NH2, in words [1]: specifically inhibited the formation of Y-NH2

Molecule: C[C@H](NC(=O)OCc1ccccc1)C(=O)N[C@@H](Cc1ccccc1)C(N)=O [cbz-AF-NH2, carbobenzoxy-alanine-phenylalanine-amide]
pIC50 [2, 5]: 3.22

Molecule: C[C@H](NC(=O)OCc1ccccc1)C(=O)N[C@@H](Cc1ccccc1)C(=O)N[C@@H](Cc1ccc(O)cc1)C(N)=O [cbz-AFY-NH2]
Effect on C6 cell spreading on CNS myelin, in words ([2]; Section 11): strong inhibition of cell spreading

Molecule: C[C@H](NC(=O)[C@H](Cc1ccccc1)NC(=O)OCc1ccccc1)C(N)=O [cbz-FA-NH2]
pIC50 [2, 5]: 3.22

pIC50 [2]: 5.52
Molecule: C[C@H](NC(=O)[C@H](Cc1ccccc1)NC(=O)OCc1ccccc1)C(=O)N[C@@H](Cc1ccccc1)C(=O)N[C@@H](Cc1ccc(O)cc1)C(N)=O [cbz-FAFY-NH2, carbobenzoxy-Phe-Ala-Phe-Tyr-amide] (Cbz-FAFY-NH2)
Effect on C6 cell spreading on CNS myelin, in words ([2]; Section 11): clearly impaired C6 cell spreading on CNS myelin
Effect on C6 cell spreading on PLYS-coated wells, in words ([2]; Section 11): had no effect on PLYS-coated wells

pIC50 [2]: 5.30
Molecule: COC(=O)[C@H](Cc1ccccc1)NC(=O)[C@H](Cc1ccccc1)NC(=O)CNC(=O)OCc1ccccc1 [cbz-GFF-OCH3] (Cbz-Gly-Phe-Phe-OMe)
Effect on C6 cell spreading on CNS myelin, in words ([2]; Section 11): strong inhibition of cell spreading

pIC50 [2]: 3.52
Molecule: O=C(CNC(=O)OCc1ccccc1)N[C@@H](Cc1ccccc1)C(=O)N[C@@H](Cc1ccccc1)C(=O)O [cbz-GFF] (Cbz-Gly-Phe-Phe-OH; C-terminus assumed)

pIC50 [2]: 5.30
Molecule: CC(C)C[C@H](NC(=O)CNC(=O)OCc1ccccc1)C(=O)N[C@@H](Cc1ccccc1)C(N)=O [cbz-GLF-NH2] (Cbz-Gly-Leu-Phe-NH2)

Molecule: NC(=O)CI [iodacetamide]
Effect on cbz-FAF[^125I]Y-NH2 degradation by C6 plasma membranes, in words [1]: had no effect

Effect on cbz-FAF[^125I]Y-NH2 degradation by C6 plasma membranes, in words [1]: had no effect
Molecule: CC(C)C[C@H](NP(=O)(O)O[C@@H]1O[C@@H](C)[C@H](O)[C@@H](O)[C@H]1O)C(=O)N[C@@H](Cc1c[nH]c2ccccc12)C(=O)O [phosphoramidon]
Inhibition on CNS (%) [3]: 9%
Effect on C6 cell spreading on CNS myelin, in words [3]: did not impair C6 cell spreading

Effect on cbz-FAF[^125I]Y-NH2 degradation by C6 plasma membranes, in words [1]: had no effect
Molecule: Carboxymethyl-phe-leu [cm-phe-leu]
Inhibition on CNS (%) [3]: 3%
Effect on C6 cell spreading on CNS myelin, in words [3]: did not inhibit C6 cell spreading

Molecule: cathepsin D: acidic protease
Amount necessary to degrade 50% of substrate in 30 min ([4]; 37° C., pH 7.4): >100 µg
Amount giving half maximal activity on cbz-FAFY-NH2 ([4]; pH 4.0): 5 ng
Amount necessary to degrade 50% of substrate in 30 min ([4]; pH 4.0): 0.005 µg

Molecule: collagenase
Amount necessary to degrade 50% of substrate in 30 min ([4]; 37° C., pH 7.4): 3 µg and 3.0 µg

Molecule: trypsin
Amount necessary to degrade 50% of substrate in 30 min ([4]; 37° C., pH 7.4): 0.3 µg
